According to publication PMC5321741, “Arylmethylamino steroids as antiparasitic agents” (Nature Communications, 2017):
Values joined by “and” are separate entries in the source; they are usually repeats but may differ in a detail not shown here. Equal values may be shown once.

Key:
[1] = test system: P. berghei GFP ANKA malaria strain; assay: P. berghei mouse model (Peter's test); type: in vivo, Plasmodium berghei in NMRI mice
Protocol: The animal experiments described here were performed at the Swiss Tropical and Public Health Institute (Swiss TPH, Basel, Switzerland), they were approved by the Swiss Cantonal Authorities (‘Kantonales Veterinäramt Basel Stadt') adhering to local and national regulations of laboratory animal welfare in Switzerland. The best compounds were tested in the murine P. berghei model essentially as described. The infection was initiated at day 0 with the P. berghei GFP ANKA malaria strain (donation from AP Waters and CJ Janse, Leiden University). From donor mice (female NMRI mice, 18–20 grams (about 3 weeks) from Charles River Germany) with ∼30% parasitaemia, heparinized blood was taken and diluted in physiological saline to 10^8 parasitized erythrocytes/ml. An aliquot (0.2 ml) of this suspension was injected intravenously into experimental and control groups of mice (female NMRI mice, 18–20 grams (about 3 weeks) from Charles River Germany). Usually, in untreated control mice parasitaemia rose regularly to ∼30% by day 3 post-infection. Control mice died between days 6 and 7 post infection. In the experiments described here, however, control animals (n=5) were killed on day 4 post infection for ethical reasons.
The steroid compounds were prepared at an appropriate concentration as a solution/suspension in Tween 80/alcohol (7:3, Tween 80 and absolute ethanol, respectively), followed by a 10x dilution in water. […] The route of administration was i.p., p.o., s.c. in a volume of 10 ml kg^−1.
The degree of infection (parasitaemia expressed in % of infected erythrocytes) was determined by FACS analysis on day 4 (96 h post infection). The difference of the mean infection rate of the control group (=100%) to the test group was calculated and expressed as a percent reduction. For example, activity determination with a mean of 2% parasitaemia in treated mice and a mean of 40% parasitaemia in the control animals is calculated as follows: (40−2%)/40% × 100=95% activity. The survival time in days was recorded up to 30 days after infection. A compound was considered curative if the animal survived to day 30 after infection with no detectable parasites (confirmed by light microscopy).

[2] = test system: P. falciparum gametocytes (pfs16-GFP-Luc, NF54 background); assay: gametocyte luciferase assay; type: cell-based, Plasmodium falciparum
Protocol: Sensitivity of P falciparum gametocytes to lead compound 1o was determined by measuring the activity of luciferase in luciferase-expressing gametocytes after an exposure of 72 h to different concentrations of compound 1o.
The pfs16-GFP-Luc (NF54 background) parasite strain[44] was maintained at 1 to 10% parasitaemia in an RPMI 1640 culture medium supplemented with A+ erythrocytes (2% haematocrit), 10% decomplemented human serum, 9 mM (0.16%) glucose, 0.2 mM hypoxanthine, 2.1 mM L-glutamine, and 20 μg ml^−1 gentamicin. Parasite cultures were incubated at 37 °C in 5% O2, 5% CO2, and 90% N2. […] Following drug exposure, parasites were cultivated for two additional days in normal medium before centrifugation and freezing at −80 °C, and luciferase activity was measured.
Plates frozen at −80 °C were thawed at 37 °C. […] Luciferase activity was measured on a luminescence plate reader (Mithras LB940 luminometer, Berthold Technologies). The mean of the luciferase activity was calculated for each technical triplicate and normalized as follows: (Lucx−LucRBC)/(Lucsolvent−LucRBC) with Lucx and Lucsolvent=mean luciferase activity for parasites incubated with compound x and with solvent (DMSO for 1o and PBS for MB), respectively, and LucRBC=mean luciferase activity of non-infected red blood cells (background). […]

[3] = 4x 100 mg/kg i.p., recorded up to 30 days
[4] = 4x 100 mg/kg p.o., recorded up to 30 days

COc1ccc2c(c1)CCC1C2CC[C@@]2(C)C1CC[C@H]2NCc1cc2ccccc2cc1O (stereo partly drawn) [1o]
% activity (reduction of parasitaemia) ([1]; 1x 100 mg/kg p.o.): 98% | % of control ([1]; 1x 100 mg/kg p.o.): 1.5% | Mouse survival in days, Average ([1]; 1x 100 mg/kg p.o.): 13 days | Mouse survival in days, individual mice M1-M3 ([1]; 1x 100 mg/kg p.o.): 14 days (2×) and 11 days | Parasitized RBC over 100, Average ([1]; 1x 100 mg/kg p.o.): 0.47 | Parasitized RBC over 100, individual mice M1-M3 ([1]; 1x 100 mg/kg p.o.): 0.30 and 0.60 and 0.50 | Parasitized RBC after 30 d (microscope), individual mice ([1]; 4x 100 mg/kg i.p.): 0.0 | % activity (reduction of parasitaemia) ([1]; 4x 100 mg/kg i.p., day 4): 99.8% | % of control ([1]; 4x 100 mg/kg i.p., day 4): 0.17% | Parasitized RBC over 100, Average ([1]; 4x 100 mg/kg i.p., day 4): 0.10 | Parasitized RBC over 100, individual mice M1-M3 ([1]; 4x 100 mg/kg i.p., day 4): 0.10 | Mouse survival in days, Average [1, 3]: > 30 days | Mouse survival in days, individual mice M1-M3 [1, 3]: 30 days | % activity (reduction of parasitaemia) ([1]; 4x 100 mg/kg p.o.): 99.8% | % of control ([1]; 4x 100 mg/kg p.o.): 0.22% | Parasitized RBC after 30 d (microscope), individual mice ([1]; 4x 100 mg/kg p.o.): 0.0 | Parasitized RBC over 100, Average ([1]; 4x 100 mg/kg p.o.): 0.13 | Parasitized RBC over 100, individual mice M1-M3 ([1]; 4x 100 mg/kg p.o.): 0.00 and 0.30 and 0.10 | Mouse survival in days, Average [1, 4]: 27 days | Mouse survival in days, individual mice M1-M3 [1, 4]: 30 days (2×) and 20 days | cure of mice ([1]; 4 × 100 mg kg−1 i.p.): all mice treated were cured | cure of mice ([1]; 4 × 100 mg kg−1 oral): two thirds of the animals were cured | relative survival of gametocytes ([2]; concentrations >5 nM, all stages, 72 h exposure): below 50% | complete killing of gametocytes ([2]; even at concentrations >1 μM): never detected complete killing of gametocytes
